Measurements taken from patent US20040266766A1, “Selective urokinase inhibitors” (Wilex AG, priority 2001, published 2004).
Where a name gives a salt, the structure may show the parent alone. Read-outs that look alike come from different tables or passages of the source.

How the values were obtained:
[1] = target: T1, urokinase (uPA) (Homo sapiens, UniProt P00749); experiment: In vitro inhibition of urokinase (Ki according to Dixon, chromogenic substrate); format: biochemical
T1 construct: purchased Calbiochem-Novabiochem GmbH, Bad Soden, Germany
Experimental: (§1) In order to determine the inhibitory activity, 200 μl Tris buffer (0.05 mol/l containing the inhibitor, 0.154 mol/l NaCl, pH 8.0), 25 μl substrate (Pefachrome uPA, Pefachrome PL or Pefabloc TH in H2O; Pentapharm Ltd, Basle, Switzerland) and 50 μl urokinase (Calbiochem-Novabiochem GmbH, Bad Soden, Germany) or another appropriate protease e.g. plasmin, thrombin or FXa are incubated for 10 minutes at 30° C. After ca. 30 minutes and 30 cycles the absorption is determined at 405 nm by means of a microplate reader (Mediators PHL, Aureon Biosystems, Vienna, Austria). The Ki values were determined according to Dixon by linear regression using a computer program.

[2] = system: Caco-2 cell monolayers; experiment: Caco-assay: transport across Caco-2 cell monolayers; format: in vitro ADME, human; details: for % amount in the basolateral compartment: 10 μg/ml apical, four hours
Experimental: Transport of the compounds WX-508, WXC-316, WXC-318, WXC-324, WXC-340, WX-532, WX-538, WX-550 and WX-582 across Caco-2 cell monolayers was investigated. In this experiment the bioavailability of the said compounds after oral administration was assessed.
Caco-2-cells (American Type Culture Collection, Rockville, Md., USA) were cultured in Dulbecco's modified Eagle medium (DMEM) (Life Technologies, Gibco BRL, UK) containing 10% vol/vol heat-denatured foetal calf serum (FCS), 1% vol/vol non-essential amino acids, 160 U/ml benzylpenicillin and 100 U/ml streptomycin (Sigma Chemical, St. Louis, Mo., USA). The cells are kept at 37° C. in an atmosphere comprising 95% air and 5% CO2 at 90% relative air humidity. The cells are cultured in […] culture flasks, the medium being replaced every second day and the cells are trypsinized once per week.
For the transport investigations the Caco-2 cells are cultured on porous polycarbonate filter membranes having a pore size of 0.4 μm and a surface of 4.7 cm^2 in clusters of 6 wells (Costar Transwell, Badhoevedorp, Netherlands). The cells are inoculated on each filter at an initial density of 10^4 cells/cm^2. These cells are kept at 37° C. in one of the atmospheres described above. The medium is replaced every second day for a period of three weeks.
On the day of the transport experiment the culture medium was replaced by the same volume of Hank's balanced saline solution (HBSS) buffered with 30 mM HEPES at pH 7.2 (transport medium) and the cells are allowed to equilibrate for 1 hour. Afterwards the apical medium is replaced by 1.5 ml of a solution containing one of the compounds in HBSS/HEPES (10 μg/ml). Cell monolayers are incubated for four hours. Samples of the apical and basolateral compartments are removed at the end of the experiments and used to quantitatively determine the transport of the respective compounds.
The transepithelial electric resistance (TEER) is measured before and after equilibration using a Milicell ERS meter which was connected to a pair of electrodes in order to ensure the integrity of the monolayers formed on the filters. TEER is also measured at the end of the experiments to ensure that the cell monolayer remains coherent.
Samples are taken from the apical and the basolateral side and analysed in a beta counter after adding a scintillation cocktail. All experiments were carried out three times.

[3] = Oral bioavailability and plasma kinetics in mice (serum concentration); format: in vivo, Balb/c mice; details: mouse; for concentration at 20 min / concentration at 40 min / concentration at 60 min: female, Balb/c, serum, po; for concentration at 20 min: sample at 20 minutes; for concentration at 40 min: sample at 40 minutes; for concentration at 60 min: sample at 60 minutes
[4] = target: PK (Homo sapiens, UniProt P03952); experiment: In vitro inhibition of PK (Ki); format: biochemical; details: summary table
PK, sequence (P03952 20-638): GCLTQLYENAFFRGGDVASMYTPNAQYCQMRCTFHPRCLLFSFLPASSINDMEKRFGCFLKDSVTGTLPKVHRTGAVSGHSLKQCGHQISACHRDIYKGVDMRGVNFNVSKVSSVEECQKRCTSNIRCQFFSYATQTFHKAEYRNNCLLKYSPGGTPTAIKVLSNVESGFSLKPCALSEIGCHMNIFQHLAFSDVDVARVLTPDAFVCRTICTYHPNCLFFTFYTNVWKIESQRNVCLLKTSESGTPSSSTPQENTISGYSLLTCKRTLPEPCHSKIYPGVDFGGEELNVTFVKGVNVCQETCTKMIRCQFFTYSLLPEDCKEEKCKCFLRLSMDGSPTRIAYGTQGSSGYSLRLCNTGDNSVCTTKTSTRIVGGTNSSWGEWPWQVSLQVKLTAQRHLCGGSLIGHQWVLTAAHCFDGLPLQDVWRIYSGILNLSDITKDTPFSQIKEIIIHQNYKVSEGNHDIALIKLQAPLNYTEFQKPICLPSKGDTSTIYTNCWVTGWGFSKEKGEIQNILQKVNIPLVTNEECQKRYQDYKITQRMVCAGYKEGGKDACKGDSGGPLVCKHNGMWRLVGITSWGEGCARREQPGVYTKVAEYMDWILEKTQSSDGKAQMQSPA
Experimental: as §1

[5] = target: Plasmin (Homo sapiens, UniProt P00747); experiment: In vitro inhibition of plasmin (Ki according to Dixon); format: biochemical
Plasmin, sequence (P00747 581-810 limits assumed, species assumed): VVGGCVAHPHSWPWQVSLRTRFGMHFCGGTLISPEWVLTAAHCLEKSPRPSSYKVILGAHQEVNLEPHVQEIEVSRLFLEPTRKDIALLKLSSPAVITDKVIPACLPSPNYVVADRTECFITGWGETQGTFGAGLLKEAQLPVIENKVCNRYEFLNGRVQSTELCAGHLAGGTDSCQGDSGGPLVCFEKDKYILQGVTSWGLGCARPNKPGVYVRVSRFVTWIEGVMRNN
Plasmin, sequence (P00747 97-580 partner limits assumed, species assumed): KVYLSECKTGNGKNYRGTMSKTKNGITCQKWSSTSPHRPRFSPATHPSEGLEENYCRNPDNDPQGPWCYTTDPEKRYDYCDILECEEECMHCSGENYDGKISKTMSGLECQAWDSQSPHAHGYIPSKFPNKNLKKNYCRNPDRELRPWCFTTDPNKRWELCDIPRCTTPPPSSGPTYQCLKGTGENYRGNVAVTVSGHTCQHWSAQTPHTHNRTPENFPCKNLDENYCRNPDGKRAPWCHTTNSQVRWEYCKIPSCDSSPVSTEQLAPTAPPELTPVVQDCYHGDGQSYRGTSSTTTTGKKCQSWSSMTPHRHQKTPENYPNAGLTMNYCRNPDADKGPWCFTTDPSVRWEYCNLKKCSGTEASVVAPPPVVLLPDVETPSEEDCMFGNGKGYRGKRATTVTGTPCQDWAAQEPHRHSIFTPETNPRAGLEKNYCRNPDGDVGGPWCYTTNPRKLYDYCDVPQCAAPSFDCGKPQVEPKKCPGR
Experimental: as §1

[6] = target: FXa (Homo sapiens, UniProt P00742); experiment: In vitro inhibition of FXa (Ki according to Dixon); format: biochemical
FXa, sequence (P00742 235-488 limits assumed): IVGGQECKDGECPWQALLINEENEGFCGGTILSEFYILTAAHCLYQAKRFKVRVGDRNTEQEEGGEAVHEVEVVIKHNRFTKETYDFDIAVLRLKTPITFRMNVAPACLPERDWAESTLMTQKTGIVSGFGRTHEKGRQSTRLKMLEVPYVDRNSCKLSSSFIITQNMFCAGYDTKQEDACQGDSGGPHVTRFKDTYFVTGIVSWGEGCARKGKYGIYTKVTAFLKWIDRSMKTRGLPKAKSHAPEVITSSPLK
FXa, sequence (P00742 41-179 partner limits assumed): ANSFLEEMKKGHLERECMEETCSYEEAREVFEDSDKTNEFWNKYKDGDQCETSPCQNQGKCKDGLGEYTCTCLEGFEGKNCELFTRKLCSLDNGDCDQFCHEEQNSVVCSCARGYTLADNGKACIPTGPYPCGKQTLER
Experimental: as §1

[7] = target: Thrombin (Homo sapiens, UniProt P00734); experiment: In vitro inhibition of thrombin (Ki according to Dixon); format: biochemical
Experimental: as §1

[8] = list of test substances of Example 17, read-out: Ki human uPA
[9] = 7.5 mg/kg, 7.5 mg/kg oral, read-out: c in the serum 1st analysis
[10] = 75 mg/kg, 75 mg/kg oral, read-out: c in the serum 1st analysis
[11] = summary table, read-out: Ki uPA
[12] = 30 mg/kg, 30 mg/kg oral, read-out: c in the serum 1st analysis
[13] = 30 mg/kg, 30 mg/kg oral, read-out: c in the serum 2nd analysis
[14] = 300 mg/kg, 300 mg/kg oral, read-out: c in the serum 1st analysis
[15] = 300 mg/kg, 300 mg/kg oral, read-out: c in the serum 2nd analysis
[16] = 10 mg/kg i.v., time of sample collection 0
[17] = 10 mg/kg i.v., time of sample collection 10
[18] = 10 mg/kg i.v., time of sample collection 30

| Structure (SMILES) | Ki ([1]; read-out: Ki uPA) | % amount in the basolateral compartment ([2]; first value column) | % amount in the basolateral compartment ([2]; second value column) | % amount in the basolateral compartment ([2]; third value column) | Caco-2 assay % basolateral ([2]; first series, first value) | Caco-2 assay % basolateral ([2]; first series, second value) | Caco-2 assay % basolateral ([2]; first series, third value) | Caco-2 assay % basolateral ([2]; second series, first value) | Caco-2 assay % basolateral ([2]; second series, second value) | Caco-2 assay % basolateral ([2]; second series, third value) | Ki [1, 8] | Ki [4] | Ki [1, 11] | Ki [6] | concentration at 20 min [3, 12] | concentration at 60 min [3, 12] | concentration at 20 min [3, 14] | concentration at 20 min [3, 15] | concentration at 40 min [3, 14] | Ki Thrombin [7] | other results |
| --- | --- | --- | --- | --- | --- | --- | --- | --- | --- | --- | --- | --- | --- | --- | --- | --- | --- | --- | --- | --- | --- |
| N=C(N)Nc1ccc(CNC(=O)CNC(=O)C(CO)NC(=O)Nc2cccc(C(=O)O)c2)cc1 (stereo not drawn) [WX-C324, 3-Carboxyphenyl-aminocarbonyl-(D)-Ser-Gly-(4-guanidinobenzyl)amide hydrochloride] | 3.1 µM | 0.1% | 0.1% | 2.0% | 0.1% | 0.1% | 2.9% | 0% | 0% | 3.0% | – | – | – | – | – | – | – | – | – | – | – |
| C[C@@H](C(=O)NCc1ccc(NC(=N)N)cc1)N(C)C(=O)[C@@H](CO)NS(=O)(=O)Cc1ccc(Cl)cc1 [WX-582, 4-chlorobenzylsulfonyl-(D)-Ser-N-Me-Ala-(4-guanidinobenzyl)amide] | 0.01 µM | 0.4% | 3.1% | 5.2% | 0% | 3.1% | 5.2% | 0.4% | 2.9% | 3.0% | 0.01 µM | 58 µM | – | – | – | – | – | – | – | – | concentration at 20 min [3, 9]: 0 ng/mL; concentration at 40 min [3, 9]: 0 ng/mL; concentration at 60 min [3, 9]: 0 ng/mL; concentration at 20 min [3, 10]: 1000 ng/mL; concentration at 40 min [3, 10]: 700 ng/mL; concentration at 60 min [3, 10]: 400 ng/mL; c in the serum 1st analysis ([3]; 2.5 mg/kg i.v., time of sample collection 0): 11.5 µg/mL; c in the serum 1st analysis ([3]; 2.5 mg/kg i.v., time of sample collection 10): 0.8 µg/mL; c in the serum 1st analysis ([3]; 2.5 mg/kg i.v., time of sample collection 30): 0.1 µg/mL |
| N=C(N)Nc1ccc(CNC(=O)CNC(=O)C(CO)NS(=O)(=O)Cc2cccc(Cl)c2)cc1 (stereo not drawn) [WX-C318, 3-Chlorobenzyl-sulfonyl-(D)-Ser-Gly-(4-guanidinobenzyl)amide hydrochloride] | 0.047 µM | 0.4% | 1.0% | 4.5% | 0.4% | 1.0% | 4.5% | 0.2% | 0.6% | 7.0% | 0.047 µM | 176 µM | 0.047 µM | 36 µM | 100 ng/mL | 200 ng/mL | 100000 ng/mL | 82600 ng/mL | 5400 ng/mL | no inh. at 100 μM *) | Ki Plasmin [5]: no inh. at 100 μM *); Ki Plasmin ([5]; summary table): no inh. at 100 μM *); concentration at 20 min [3, 13]: 200 ng/mL; concentration at 40 min [3, 13]: 50 ng/mL; concentration at 60 min [3, 13]: 200 ng/mL; concentration at 40 min [3, 15]: 6200 ng/mL; concentration at 60 min [3, 14]: 7500 ng/mL; concentration at 60 min [3, 15]: 7700 ng/mL; c in the serum 2nd analysis [3, 16]: 48.4 µg/mL; c in the serum 1st analysis [3, 17]: 4.3 µg/mL; c in the serum 2nd analysis [3, 17]: 5.5 µg/mL; c in the serum 1st analysis [3, 18]: 0.7 µg/mL; c in the serum 2nd analysis [3, 18]: 1.4 µg/mL; Ki Thrombin ([7]; summary table): no inh. at 100 μM *) |
| N=C(N)Nc1ccc(CNC(=O)NNC(=O)[C@@H](CO)NS(=O)(=O)Cc2ccccc2)cc1 [WX-544, BzSO2-(D)-Ser-AzaGly-(4-guanidinobenzyl)amide] | 0.83 µM | – | – | – | – | – | – | – | – | – | – | – | – | – | – | – | – | – | – | no inh. at 100 μM *) | – |
| N=C(N)Nc1ccc(S(=O)(=O)NCCNC(=O)C(CO)NS(=O)(=O)Cc2ccccc2)cc1 (centres unmarked) [WX-568, N-[2-(4-guanidino-benzenesulfonylamino)-ethyl]-3-hydroxy-2-phenylmethanesulfonylamino-propionamide hydrochloride] | 2.1 µM | – | – | – | – | – | – | – | – | – | – | – | – | > 1000 µM | – | – | – | – | – | – | Ki [7]: > 1000 µM |
| C[C@H](NC(=O)C(CO)NS(=O)(=O)Cc1ccccc1)C(=O)NCc1ccc(NC(=N)N)cc1 (stereo partly drawn) [WX-532, Benzylsulfonyl-(D)-Ser-Ala-(4-guanidinobenzyl)amide hydrochloride] | 0.016 µM | 0% | 0% | 0% | 0/0/0% | 0/0/0% | 0/0/0% | – | – | – | 0.016 µM | 49 µM | 0.016 µM | – | 1500 ng/mL | 900 ng/mL | 5800 ng/mL | 6700 ng/mL | 2900 ng/mL | no inh. at 100 μM *) | Ki [5]: 40 µM; concentration at 40 min [3, 12]: 10900 ng/mL; concentration at 40 min [3, 15]: 3300 ng/mL; concentration at 60 min [3, 14]: 12800 ng/mL; concentration at 60 min [3, 15]: 15000 ng/mL; c in the serum 1st analysis [3, 16]: 61.7 µg/mL; c in the serum 2nd analysis [3, 16]: 68.8 µg/mL; c in the serum 1st analysis [3, 17]: 3.8 µg/mL; c in the serum 2nd analysis [3, 17]: 3.5 µg/mL; c in the serum 1st analysis [3, 18]: 11.4 µg/mL; c in the serum 2nd analysis [3, 18]: 11.2 µg/mL; Ki Thrombin ([7]; summary table): no inh. at 100 μM *) |
